Patent US10953027B2, “Active agents and methods of their use for the treatment of metabolic disorders and nonalcoholic fatty liver disease” (Flagship Pioneering Innovations V, Inc., priority 2018, dated 2021)

Columns and labels:
Type in all cases: in vitro ADME
[1] = Assay 3. Fecal Incubation Stability; conditions: 1 or 10 μM, human fecal slurry, anaerobic
Protocol: Assay 3. Fecal Incubation Stability. This assay was used to assess the stability of an acylated active agent in a large intestine. All experiments were performed in an anaerobic chamber containing 90% nitrogen, 5% hydrogen and 5% carbon dioxide. Human fecal matter in a slurry (15% WV) is added to 96 well plates containing YCFA media or other suitable media (1.6 mL). Compounds were added to each individual well to reach a final analyte concentration of 1 or 10 μM, and the material was mixed by pipetting. At set time points a sample was removed, quenched with acetonitrile, and analyzed by LC/MS.

[2] = Assay 1. Stability in Simulated Gastric Fluid (SGF); conditions: 1 μM, 37° C., SGF pH 1.6 with pepsin
Summary of the method: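 Acylated compounds at a final 1 μM (diluted from 1 mM DMSO stock) were incubated at 37 °C in SGF of pH 1.6 NaCl buffer with FaSSIF powder and 0.1 mg/mL pepsin. Aliquots were quenched with acetonitrile at T0 and regular intervals, and degradation rates were determined by LC/MS.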

[3] = Assay 2. Stability in Simulated Intestinal Fluid (SIF); conditions: 1 μM, 37° C., SIF pH 6.7 with pancreatin
Summary of the method: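 Acylated compounds at 1 μM (from 1 mM DMSO stock) in fresh SIF: FaSSIF with pancreatin in pH 6.7 phosphate buffer, agitated at 37 °C. Aliquots from T0 onward quenched with 1 volume acetonitrile; LC/MS gives degradation rates.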

SMILES | Assay 3 (% Remaining at 24 h) [1] | Assay 1 (SGF) (% Remaining @ 1 hours) [2] | Assay 2 (SIF) (% @ Remaining 4 hours) [3]
O=C(Cc1c[nH]c2ccccc12)Oc1ccc(/C=C/c2cc(OC(=O)Cc3c[nH]c4ccccc34)cc(OC(=O)Cc3c[nH]c4ccccc34)c2)cc1 [Compound 260, 4-[(1E)-2-[3,5-bis({[2-(1H-indol-3-yl)acetyl]oxy})phenyl]ethenyl]phenyl 2-(1H-indol-3-yl)acetate] | A (A: <25% of the tested compound remaining) | – | –
O=C(Cc1c[nH]c2ccccc12)O[C@@H]1OC[C@H](OC(=O)Cc2c[nH]c3ccccc23)[C@H](OC(=O)Cc2c[nH]c3ccccc23)[C@H]1OC(=O)Cc1c[nH]c2ccccc12 [Compound 178, (2S,3R,4S,5S)-3,4,5-tris({[2-(1H-indol-3-yl)acetyl]oxy})oxan-2-yl 2-(1H-indol-3-yl)acetate] | A (A: <25% of the tested compound remaining) | – | –
CCC(=O)O[C@@H]1[C@H](OC(=O)CC)C=C(C(=O)O)C[C@H]1OC(=O)CC [Compound 254, (3R,4S,5R)-3,4,5-tris(propanoyloxy)cyclohex-1-ene-1-carboxylic Acid] | B (B: 25-75% of the tested compound remaining) | – | –
CCCC(=O)O[C@@H]1[C@@H](OC(=O)CCC)[C@@H](Oc2ccc(N)cc2C(=O)O)OC[C@H]1OC(=O)CCC [Compound 33, 5-amino-2-[(2R,3R,4S,5R)-3,4,5-tri(butanoyloxy)tetrahydropyran-2-yl]oxy-benzoic Acid] | – | C (C: >75% of the tested compound remaining) | C (C: >75% of the tested compound remaining)
C[C@@H](O)CCOC(=O)c1cc(N)ccc1O [Compound 39, [(3R)-3-hydroxybutyl] 5-amino-2-hydroxy-benzoate] | – | C (C: >75% of the tested compound remaining) | C (C: >75% of the tested compound remaining)
CCCC(=O)Oc1cc(OC(=O)CCC)c2c(=O)c(OC(=O)CCC)c(-c3cc(OC(=O)CCC)c(OC(=O)CCC)c(OC(=O)CCC)c3)oc2c1 [Compound 200, 3,5-bis(butanoyloxy)-4-oxo-2-[3,4,5-tris(butanoyloxy)phenyl]-4H-chromen-7-yl Butanoate] | – | C (C: >75% of the tested compound remaining) | C (C: >75% of the tested compound remaining)
O=C(CCc1c[nH]c2ccccc12)O[C@@H]1[C@H](OC(=O)CCc2c[nH]c3ccccc23)COC(O)[C@@H]1OC(=O)CCc1c[nH]c2ccccc12 (stereo partly drawn) [Compound 167, (3R,4R,5R)-6-hydroxy-4,5-bis({[3-(1H-indol-3-yl)propanoyl]oxy})oxan-3-yl 3-(1H-indol-3-yl)propanoate] | – | C (C: >75% of the tested compound remaining) | A (A: <25% of the tested compound remaining)
CCC(=O)Oc1ccc2c(c1)oc(=O)c1cc(OC(=O)CC)c(OC(=O)CC)cc12 [Compound 242, [6-oxo-8,9-di(propanoyloxy)benzo[c]chromen-3-yl] propanoate] | – | C (C: >75% of the tested compound remaining) | A (A: <25% of the tested compound remaining)
CCC(=O)O[C@@H]1[C@@H](OC(=O)CC)[C@@H](OC(=O)CC)CO[C@H]1O [Compound 159, (3S,4S,5R,6R)-6-hydroxy-4,5-bis(propanoyloxy)oxan-3-yl Propanoate] | – | C (C: >75% of the tested compound remaining) | B (B: 25-75% of the tested compound remaining)
CCC(=O)OCC[C@@H](C)OC(=O)Oc1ccc(/C=C/c2cc(OC(=O)O[C@H](C)CCOC(=O)CC)cc(OC(=O)O[C@H](C)CCOC(=O)CC)c2)cc1 [Compound 76, (3R,3′R)-((((5-((E)-4-(((((R)-4-(propionyloxy)butan-2-yl)oxy)carbonyl)oxy)styryl)-1,3-phenylene)bis(oxy))bis(carbonyl))bis(oxy))bis(butane-3,1-diyl) dipropionate] | – | B (B: 25-75% of the tested compound remaining) | A (A: <25% of the tested compound remaining)
